According to US11945798B2, “Substituted aminopyridine compounds as EGFR inhibitors” (YUHAN CORPORATION, priority 2021, dated 2024):
Like-named read-outs stand apart in the source and are kept apart here.

Key:
EGFR del19/C797S = EGFR del19/C797S (Homo sapiens, UniProt P00533, C797S/DEL746-750); assay: Biochemical EGFR kinase assay (Lance Ultra TR-FRET), del19/C797S
Outline: (§1)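 In this biochemical assay, phosphorylation after a one-hour room-temperature reaction was detected with europium-labelled anti-phosphopeptide antibody at 2 nM final concentration.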

EGFR del19/T790M/C797S = EGFR del19/T790M/C797S (Homo sapiens, UniProt P00533, C797S/DEL746-750/T790M); assay: Biochemical EGFR kinase assay (Lance Ultra TR-FRET), del19/T790M/C797S
Sequence of EGFR del19/T790M/C797S (P00533 with tags, fused parts or gaps DEL746-750/T790M/C797S): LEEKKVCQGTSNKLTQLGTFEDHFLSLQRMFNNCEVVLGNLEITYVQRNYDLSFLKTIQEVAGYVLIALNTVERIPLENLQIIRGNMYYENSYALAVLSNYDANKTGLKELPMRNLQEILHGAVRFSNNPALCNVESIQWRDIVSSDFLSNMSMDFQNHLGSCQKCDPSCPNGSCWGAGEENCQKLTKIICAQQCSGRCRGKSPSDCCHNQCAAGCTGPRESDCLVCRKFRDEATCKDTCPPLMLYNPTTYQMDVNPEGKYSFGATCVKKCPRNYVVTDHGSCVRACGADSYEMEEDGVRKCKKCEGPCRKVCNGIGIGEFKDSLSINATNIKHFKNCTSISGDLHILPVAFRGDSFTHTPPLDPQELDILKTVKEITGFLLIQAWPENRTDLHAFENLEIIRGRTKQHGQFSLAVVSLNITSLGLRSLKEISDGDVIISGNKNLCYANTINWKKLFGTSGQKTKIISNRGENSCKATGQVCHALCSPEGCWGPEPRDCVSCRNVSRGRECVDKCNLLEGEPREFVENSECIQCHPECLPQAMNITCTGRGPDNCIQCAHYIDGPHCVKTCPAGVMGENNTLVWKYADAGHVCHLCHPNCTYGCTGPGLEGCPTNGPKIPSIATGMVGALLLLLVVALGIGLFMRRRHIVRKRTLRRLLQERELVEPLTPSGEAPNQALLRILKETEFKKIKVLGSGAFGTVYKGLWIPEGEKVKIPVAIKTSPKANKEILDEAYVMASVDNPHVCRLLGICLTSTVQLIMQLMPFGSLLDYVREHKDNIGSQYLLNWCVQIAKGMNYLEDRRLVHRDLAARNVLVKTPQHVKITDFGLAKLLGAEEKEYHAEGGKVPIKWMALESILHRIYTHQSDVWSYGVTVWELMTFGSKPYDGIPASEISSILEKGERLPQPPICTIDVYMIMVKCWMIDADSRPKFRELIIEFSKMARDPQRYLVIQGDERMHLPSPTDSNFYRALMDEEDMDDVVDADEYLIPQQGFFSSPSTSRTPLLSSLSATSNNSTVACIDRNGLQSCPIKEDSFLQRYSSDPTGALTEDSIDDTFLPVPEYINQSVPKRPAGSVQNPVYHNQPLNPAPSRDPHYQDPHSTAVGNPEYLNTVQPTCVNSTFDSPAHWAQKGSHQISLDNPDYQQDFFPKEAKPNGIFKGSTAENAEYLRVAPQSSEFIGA
Outline: as §1

EGFR wildtype (WT) = EGFR wildtype (WT) (Homo sapiens, UniProt P00533); assay: Biochemical EGFR kinase assay (Lance Ultra TR-FRET), wildtype
Sequence of EGFR wildtype (WT) (P00533 25-1210): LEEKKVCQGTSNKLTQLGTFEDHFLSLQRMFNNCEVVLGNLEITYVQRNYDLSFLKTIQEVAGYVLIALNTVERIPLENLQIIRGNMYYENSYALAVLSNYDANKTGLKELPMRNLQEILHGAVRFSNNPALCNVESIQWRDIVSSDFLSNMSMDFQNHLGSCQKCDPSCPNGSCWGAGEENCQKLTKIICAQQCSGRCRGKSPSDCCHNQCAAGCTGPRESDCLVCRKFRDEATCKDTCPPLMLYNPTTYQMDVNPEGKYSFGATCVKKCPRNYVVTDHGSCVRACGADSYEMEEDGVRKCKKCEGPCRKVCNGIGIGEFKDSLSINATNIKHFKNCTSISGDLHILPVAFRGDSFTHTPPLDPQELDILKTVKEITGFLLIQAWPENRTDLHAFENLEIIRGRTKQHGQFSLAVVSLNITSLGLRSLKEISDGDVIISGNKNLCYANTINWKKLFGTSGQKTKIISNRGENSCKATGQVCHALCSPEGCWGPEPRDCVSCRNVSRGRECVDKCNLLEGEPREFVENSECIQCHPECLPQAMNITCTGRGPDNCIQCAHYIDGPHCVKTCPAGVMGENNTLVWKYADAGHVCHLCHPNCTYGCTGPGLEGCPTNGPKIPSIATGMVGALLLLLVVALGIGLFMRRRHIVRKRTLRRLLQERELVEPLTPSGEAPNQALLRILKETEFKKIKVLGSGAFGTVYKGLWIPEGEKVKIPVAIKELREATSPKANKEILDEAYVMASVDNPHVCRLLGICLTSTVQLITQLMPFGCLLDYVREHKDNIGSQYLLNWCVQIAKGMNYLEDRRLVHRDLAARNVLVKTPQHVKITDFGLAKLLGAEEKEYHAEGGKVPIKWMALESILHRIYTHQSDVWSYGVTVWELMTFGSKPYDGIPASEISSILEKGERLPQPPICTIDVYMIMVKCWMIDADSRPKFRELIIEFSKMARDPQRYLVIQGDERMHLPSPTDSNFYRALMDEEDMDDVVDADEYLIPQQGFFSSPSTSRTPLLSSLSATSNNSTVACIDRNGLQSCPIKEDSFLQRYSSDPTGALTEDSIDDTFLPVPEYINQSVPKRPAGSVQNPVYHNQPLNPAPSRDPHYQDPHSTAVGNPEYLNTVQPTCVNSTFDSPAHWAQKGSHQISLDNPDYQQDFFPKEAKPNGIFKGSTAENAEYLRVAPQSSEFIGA
Outline: as §1

EGFR L858R/T790M/C797S = EGFR L858R/T790M/C797S (Homo sapiens, UniProt P00533, C797S/L858R/T790M); assay: Biochemical EGFR kinase assay (Lance Ultra TR-FRET), L858R/T790M/C797S
Sequence of EGFR L858R/T790M/C797S (P00533 25-1210 T790M/C797S/L858R): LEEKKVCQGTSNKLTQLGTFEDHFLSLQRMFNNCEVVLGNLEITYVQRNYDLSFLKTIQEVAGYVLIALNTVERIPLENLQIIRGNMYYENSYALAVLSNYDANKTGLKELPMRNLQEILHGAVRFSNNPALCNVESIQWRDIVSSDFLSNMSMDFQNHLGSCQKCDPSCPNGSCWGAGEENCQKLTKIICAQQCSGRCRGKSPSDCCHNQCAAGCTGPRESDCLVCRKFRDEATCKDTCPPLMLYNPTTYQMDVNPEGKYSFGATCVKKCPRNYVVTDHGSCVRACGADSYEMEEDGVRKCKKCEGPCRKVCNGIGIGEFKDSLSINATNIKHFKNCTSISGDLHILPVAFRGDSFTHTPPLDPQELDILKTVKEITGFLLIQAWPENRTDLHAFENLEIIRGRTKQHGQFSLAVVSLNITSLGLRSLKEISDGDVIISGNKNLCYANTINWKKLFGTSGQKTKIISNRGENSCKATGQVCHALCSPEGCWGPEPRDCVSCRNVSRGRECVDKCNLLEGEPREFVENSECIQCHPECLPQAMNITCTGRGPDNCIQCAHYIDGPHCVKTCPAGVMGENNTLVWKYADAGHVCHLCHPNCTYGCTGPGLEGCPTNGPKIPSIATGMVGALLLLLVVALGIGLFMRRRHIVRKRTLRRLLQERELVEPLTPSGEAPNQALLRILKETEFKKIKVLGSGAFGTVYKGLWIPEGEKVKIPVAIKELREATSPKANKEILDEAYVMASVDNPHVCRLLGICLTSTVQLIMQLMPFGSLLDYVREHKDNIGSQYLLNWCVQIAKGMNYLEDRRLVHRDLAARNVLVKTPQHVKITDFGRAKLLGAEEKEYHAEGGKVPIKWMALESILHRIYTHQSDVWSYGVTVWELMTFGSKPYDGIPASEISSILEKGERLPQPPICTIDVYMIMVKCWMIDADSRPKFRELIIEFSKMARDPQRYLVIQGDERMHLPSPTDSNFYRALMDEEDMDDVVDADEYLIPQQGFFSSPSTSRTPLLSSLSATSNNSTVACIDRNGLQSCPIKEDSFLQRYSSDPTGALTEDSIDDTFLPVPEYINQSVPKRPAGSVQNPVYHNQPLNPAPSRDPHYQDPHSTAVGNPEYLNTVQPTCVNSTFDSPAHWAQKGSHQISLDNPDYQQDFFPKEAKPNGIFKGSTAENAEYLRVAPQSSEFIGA
Outline: as §1

EGFR L858R/C797S = EGFR L858R/C797S (Homo sapiens, UniProt P00533, C797S/L858R); assay: Biochemical EGFR kinase assay (Lance Ultra TR-FRET), L858R/C797S
Method: Biochemical EGFR kinase assays were conducted using Lance Ultra time-resolved fluorescence resonance energy transfer (TR-FRET) technology from Perkin-Elmer. Compounds of the invention were initially diluted to 20 mM in 100% DMSO for storage and made into kinase buffer solution to create a compound concentration ranging from 0.003 μM and 10 μM.
Each kinase reactions were incubated at room temperature for 1 hour and then stopped by the addition of 4 μL of stop solution (10 mM EDTA). The specific Europium-labeled-anti-phosphopeptide antibody (PerkinElmer, AD0069) diluted in LANCE detection buffer was then added to a final concentration of 2 nM. After 60 minutes incubation at room temperature the LANCE signal was measured on an EnVision Multilabel Reader (Perkin-Elmer). Excitation wavelength was set at 320 nm and emission monitored at 615 nm (donor) and 665 nm (acceptor). The IC50 values were determined using GraphPad prism software (GraphPad Software, Inc., San Diego, CA, USA).

[1] = IC50 del19/C797S (nM) 100 μM ATP, 100 μM ATP
[2] = IC50 del19/T790M/C797S (nM) 100 μM ATP, 100 μM ATP
[3] = Km ATP, read-out: IC50 del19/T790M/C797S (nM) Km ATP
[4] = IC50 WT (nM) 100 μM ATP, 100 μM ATP
[5] = Km ATP, read-out: IC50 WT (nM) Km ATP
[6] = IC50 L858R/T790M/C797S (nM) 100 μM ATP, 100 μM ATP
[7] = Km ATP, read-out: IC50 L858R/T790M/C797S (nM) Km ATP
[8] = IC50 L858R/C797S (nM) 100 μM ATP, 100 μM ATP
[9] = Km ATP, read-out: IC50 L858R/C797S (nM) Km ATP
[10] = Km ATP, read-out: IC50 del19/C797S (nM) Km ATP

Sequence of EGFR del19/C797S (P00533 with tags, fused parts or gaps DEL746-750/C797S): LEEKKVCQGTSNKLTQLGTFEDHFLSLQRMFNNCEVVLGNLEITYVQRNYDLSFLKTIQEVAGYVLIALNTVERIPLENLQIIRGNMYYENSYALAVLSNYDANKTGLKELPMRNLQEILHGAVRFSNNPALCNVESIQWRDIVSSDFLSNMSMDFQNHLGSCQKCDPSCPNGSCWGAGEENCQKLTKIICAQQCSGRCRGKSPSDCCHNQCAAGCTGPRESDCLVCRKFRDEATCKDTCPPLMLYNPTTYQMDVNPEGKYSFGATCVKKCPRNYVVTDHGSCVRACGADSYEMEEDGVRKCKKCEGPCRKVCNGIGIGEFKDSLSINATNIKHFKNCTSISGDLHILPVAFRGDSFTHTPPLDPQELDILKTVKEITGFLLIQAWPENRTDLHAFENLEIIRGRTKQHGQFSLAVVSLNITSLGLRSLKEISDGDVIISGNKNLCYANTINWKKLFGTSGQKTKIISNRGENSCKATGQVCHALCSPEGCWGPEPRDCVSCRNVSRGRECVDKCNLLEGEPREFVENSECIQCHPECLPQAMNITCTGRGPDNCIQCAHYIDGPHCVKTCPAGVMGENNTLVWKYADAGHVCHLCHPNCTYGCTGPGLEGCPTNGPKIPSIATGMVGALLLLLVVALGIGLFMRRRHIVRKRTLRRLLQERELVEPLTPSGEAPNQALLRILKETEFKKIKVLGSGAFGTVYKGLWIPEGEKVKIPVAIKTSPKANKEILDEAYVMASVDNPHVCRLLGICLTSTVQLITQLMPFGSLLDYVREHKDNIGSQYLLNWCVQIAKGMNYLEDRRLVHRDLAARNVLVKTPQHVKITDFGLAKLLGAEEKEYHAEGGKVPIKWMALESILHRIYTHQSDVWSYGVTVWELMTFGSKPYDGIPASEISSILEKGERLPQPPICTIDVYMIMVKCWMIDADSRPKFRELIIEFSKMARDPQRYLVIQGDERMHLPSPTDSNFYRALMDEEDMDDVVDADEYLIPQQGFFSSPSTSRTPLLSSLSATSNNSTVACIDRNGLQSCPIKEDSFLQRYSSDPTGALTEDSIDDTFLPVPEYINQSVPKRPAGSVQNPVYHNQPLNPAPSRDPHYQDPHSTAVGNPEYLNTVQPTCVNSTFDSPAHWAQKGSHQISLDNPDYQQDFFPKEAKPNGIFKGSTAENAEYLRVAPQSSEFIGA

| SMILES | IC50 (EGFR del19/C797S; [1]) [nM] | IC50 (EGFR del19/T790M/C797S; [2]) [nM] | IC50 (EGFR del19/T790M/C797S; [3]) [nM] | IC50 (EGFR wildtype (WT); [4]) [nM] | IC50 (EGFR wildtype (WT); [5]) [nM] | IC50 (EGFR L858R/T790M/C797S; [6]) [nM] | IC50 (EGFR L858R/T790M/C797S; [7]) [nM] | IC50 (EGFR L858R/C797S; [8]) [nM] | IC50 (EGFR L858R/C797S; [9]) [nM] | IC50 (EGFR del19/C797S; [10]) [nM] |
| --- | --- | --- | --- | --- | --- | --- | --- | --- | --- | --- |
| O=C(c1cnc(Nc2ccnc(-c3cnn(S(=O)(=O)C4CC4)c3)n2)cc1NC1CCCOC1)C1CC1 (stereo not shown) [Example 34, Cyclopropyl(6-((2-(1-(cyclopropylsulfonyl)-1H-pyrazol-4-yl)pyrimidin-4-yl)amino)-4-((tetrahydro-2H-pyran-3-yl)amino)pyridin-3-yl)methanone] | 124 | 2 | – | > 10000 | – | 5.3 | – | 398 | – | – |
| O=C(c1cnc(Nc2ccnc(-c3cnn(S(=O)(=O)C4CC4)c3)n2)cc1NC1CCOCC1)C1CC1 [Example 35, Cyclopropyl(6-((2-(1-(cyclopropylsulfonyl)-1H-pyrazol-4-yl)pyrimidin-4-yl)amino)-4-((tetrahydro-2H-pyran-4-yl)amino)pyridin-3-yl)methanone] | 602 | 5.2 | – | > 10000 | – | 23.1 | – | 543 | – | – |
| CN(C)CCN1CCC(Nc2cc(Nc3ccnc(-c4cnn(S(=O)(=O)C5CC5)c4)n3)ncc2C(=O)C2CC2)CC1 [Example 37, Cyclopropyl(6-((2-(1-(cyclopropylsulfonyl)-1H-pyrazol-4-yl)pyrimidin-4-yl)amino)-4-((1-(2-(dimethylamino)ethyl)piperidin-4-yl)amino)pyridin-3-yl)methanone] | 79.9 | 1.2 | 1 | > 10000 | 113 | 2 | 0.4 | 168 | 9.7 | 36.9 |
| O=C(c1cnc(Nc2ccnc(-c3cnn(S(=O)(=O)C4CC4)c3)n2)cc1NC1CCN(C2COC2)CC1)C1CC1 [Example 38, Cyclopropyl(6-((2-(1-(cyclopropylsulfonyl)-1H-pyrazol-4-yl)pyrimidin-4-yl)amino)-4-((1-(oxetan-3-yl)piperidin-4-yl)amino)pyridin-3-yl)methanone] | 231 | 2.7 | – | > 10000 | – | 9.9 | – | 200 | – | – |
| O=C(c1cnc(Nc2ccnc(-c3cnn(S(=O)(=O)C4CC4)c3)n2)cc1NC1CCCN(CCF)C1)C1CC1 (stereo not shown) [Example 39, Cyclopropyl(6-((2-(1-(cyclopropylsulfonyl)-1H-pyrazol-4-yl)pyrimidin-4-yl)amino)-4-((1-(2-fluoroethyl)piperidin-3-yl)amino)pyridin-3-yl)methanone] | 38.8 | 3.8 | 2.9 | > 10000 | 470 | 5.2 | 1.9 | 451 | 19 | 38.4 |
| O=C(c1cnc(Nc2ccnc(-c3cnn(S(=O)(=O)C4CC4)c3)n2)cc1NC[C@H]1CC[C@H](Cn2ccnc2)CC1)C1CC1 [Example 43, (4-((((1r,4r)-4-((1H-Imidazol-1-yl)methyl)cyclohexyl)methyl)amino)-6-((2-(1-(cyclopropylsulfonyl)-1H-pyrazol-4-yl)pyrimidin-4-yl)amino)pyridin-3-yl)(cyclopropyl)methanone] | – | – | 1.3 | – | 64.1 | – | 0.5 | – | 24 | 10.5 |
| CC(=O)c1cnc(Nc2ccnc(-c3cnn(S(=O)(=O)C4CC4)c3)n2)cc1NC(C)(C)C(C)O (stereo not shown) [Example 46, 1-(6-((2-(1-(Cyclopropylsulfonyl)-1H-pyrazol-4-yl)pyrimidin-4-yl)amino)-4-((3-hydroxy-2-methylbutan-2-yl)amino)pyridin-3-yl)ethan-1-one] | – | – | 0.6 | – | 1410 | – | 7.3 | – | 471 | 290 |
| CC(=O)c1cnc(Nc2ccnc(-c3cnn(S(=O)(=O)C4CC4)c3)n2)cc1NC1CCC(CO)C1 (stereo not shown) [Example 47, 1-(6-((2-(1-Cyclopropylsulfonylpyrazol-4-yl)pyrimidin-4-yl)amino)-4-((3-(hydroxymethyl)cyclopentyl)amino)-3-pyridyl)ethanone] | – | – | 0.1 | – | 145 | – | 0.6 | – | 51.3 | 10.5 |
| O=C(c1cnc(Nc2ccnc(-c3cnn(S(=O)(=O)C4CC4)c3)n2)cc1NC1CCC(NCCN2CC(F)C2)CC1)C1CC1 (stereo not shown) [Example 55, Cyclopropyl(6-((2-(1-(cyclopropylsulfonyl)-1H-pyrazol-4-yl)pyrimidin-4-yl)amino)-4-((4-((2-(3-fluoroazetidin-1-yl)ethyl)amino)cyclohexyl)amino)pyridin-3-yl)methanone] | 35.7 | 1 | – | > 10000 | – | 1.9 | – | 85 | – | – |

Results, then the molecule that gave them:

| IC50 (EGFR del19/C797S; [1]) [nM] | IC50 (EGFR del19/T790M/C797S; [2]) [nM] | IC50 (EGFR del19/T790M/C797S; [3]) [nM] | IC50 (EGFR wildtype (WT); [4]) [nM] | IC50 (EGFR wildtype (WT); [5]) [nM] | IC50 (EGFR L858R/T790M/C797S; [6]) [nM] | IC50 (EGFR L858R/T790M/C797S; [7]) [nM] | IC50 (EGFR L858R/C797S; [8]) [nM] | IC50 (EGFR L858R/C797S; [9]) [nM] | IC50 (EGFR del19/C797S; [10]) [nM] | SMILES |
| --- | --- | --- | --- | --- | --- | --- | --- | --- | --- | --- |
| 1.7 | 0.8 | 1 | > 10000 | 13.9 | 0.8 | 0.3 | 6.5 | 0.9 | – | C[C@]1(O)CC[C@@H](Nc2cc(Nc3ccnc(-c4cnn(S(=O)(=O)C5CC5)c4)n3)ncc2C(=O)C2CC2)CC1 [Example 33, Cyclopropyl(6-((2-(1-(cyclopropylsulfonyl)-1H-pyrazol-4-yl)pyrimidin-4-yl)amino)-4-(((1s,4s)-4-hydroxy-4-methylcyclohexyl)amino)pyridin-3-yl)methanone] |
| 5.4 | 0.5 | – | > 10000 | – | 0.9 | – | 15.5 | – | – | O=C(c1cnc(Nc2ccnc(-c3cnn(S(=O)(=O)C4CC4)c3)n2)cc1NC1CC[C@@H](O)[C@@H](O)C1)C1CC1 (stereo partly drawn) [Example 36, Cyclopropyl(6-((2-(1-(cyclopropylsulfonyl)-1H-pyrazol-4-yl)pyrimidin-4-yl)amino)-4-(((3S,4R)-3,4-dihydroxycyclohexyl)amino)pyridin-3-yl)methanone] |
| 16.3 | 0.6 | 0.4 | > 10000 | 64.5 | – | 0.2 | 189 | 5.1 | 3.1 | C[C@]1(O)CC[C@@H](Nc2cc(Nc3ccnc(-c4cnn(S(=O)(=O)C5CC5)c4)n3)ncc2C(=O)CC2CCOCC2)CC1 [Example 40, 1-(6-((2-(1-(Cyclopropylsulfonyl)-1H-pyrazol-4-yl)pyrimidin-4-yl)amino)-4-(((1s,4s)-4-hydroxy-4-methylcyclohexyl)amino)pyridin-3-yl)-2-(tetrahydro-2H-pyran-4-yl)ethan-1-one] |
| 4.4 | 1 | 0.8 | > 10000 | 553 | 2.4 | 0.5 | 110 | 26.2 | 15.7 | C[C@]1(O)CC[C@@H](Nc2cc(Nc3ccnc(-c4cnn(S(=O)(=O)C5CC5)c4)n3)ncc2C(=O)C(F)F)CC1 [Example 48, 1-(6-((2-(1-(Cyclopropylsulfonyl)-1H-pyrazol-4-yl)pyrimidin-4-yl)amino)-4-(((1s,4s)-4-hydroxy-4-methylcyclohexyl)amino)pyridin-3-yl)-2,2-difluoroethan-1-one] |
| 1.2 | 0.4 | 0.4 | > 10000 | 181 | 0.7 | 0.2 | 21.1 | 4 | 2.6 | O=C(c1cnc(Nc2ccnc(-c3cnn(S(=O)(=O)C4CC4)c3)n2)cc1N[C@H]1CC[C@@H](CO)CC1)C(F)F [Example 49, 1-(6-((2-(1-(Cyclopropylsulfonyl)-1H-pyrazol-4-yl)pyrimidin-4-yl)amino)-4-(((1s,4s)-4-(hydroxymethyl)cyclohexyl)amino)pyridin-3-yl)-2,2-difluoroethan-1-one] |
| 26 | 1.1 | – | > 10000 | – | 1.8 | – | 15.2 | – | – | O=C(c1cnc(Nc2ccnc(-c3cnn(S(=O)(=O)C4CC4)c3)n2)cc1NC1CCC(NCCO)CC1)C1CC1 (stereo not shown) [Example 52, Cyclopropyl(6-((2-(1-(cyclopropylsulfonyl)-1H-pyrazol-4-yl)pyrimidin-4-yl)amino)-4-((4-((2-hydroxyethyl)amino)cyclohexyl)amino)pyridin-3-yl)methanone] |
